row,Compound,melting point
1,CC(=O)N1CCCc2cc(CO)ccc21,95 to 106 °C
2,FC(F)(F)c1snc(-c2c(Cl)cc(Cl)c3nc(C4CC4)oc23)c1Cl,110 to 111 °C
3,N=C(Nc1ccc(Cl)cc1)Nc1ncc(Cl)cc1OCc1c(F)cccc1Cl,132 to 133 °C
4,COc1cccc2c1OC(CN1CC=C(c3c[nH]c4ccc(C#N)cc34)CC1)CO2 (centres undefined),235 to 238 °C
5,ClCc1coc(-c2ccoc2)n1,70 to 71 °C
6,CC(C)(O)Cn1cnc2c(Cl)nc3ccccc3c21,196 to 199 °C
7,CC(=O)Nc1ccccc1CSc1nc2ccccc2[nH]1,218 to 222 °C
8,O=C(NCc1ccc(F)c(F)c1)c1ccnc(N2CCN(Cc3ccc(F)cc3)C2=O)c1,182 to 183 °C
9,CCCCc1nc(Cl)c(C(=O)O)n1Cc1ccc(-c2ccccc2-c2c(O)c(=O)c2=O)cc1,168 °C
10,CON=Cc1nc2c(N)nc3ccccc3c2n1CC(C)C,181 to 183 °C
11,COC(=O)COc1ccc2ccc(O)c(C(C)=O)c2c1,113 to 114 °C
12,COC(=O)c1ccc(Cl)cc1NC(=O)CSc1cccc(OC)c1,72 to 73 °C
13,CCCc1c(C(=O)C(C)C)c2ccc(C(=O)OC)cc2n1Cc1ccccc1C,99 to 102 °C
14,CCCCc1ccc(NC(N)=S)cc1,123 to 125 °C
15,C(=Nc1c2c(nc3ccccc13)CCCC2)c1ccccc1,168 to 169 °C
16,O=C(O)CCC(=O)c1ccc2oc3ccccc3c2c1,186 to 188 °C
17,CC(=O)Oc1ccc(CCC2CC(=O)OC(=O)C2)cc1,97 to 99 °C
18,O=[N+]([O-])c1cc(C(F)(F)F)c(Cl)c([N+](=O)[O-])c1Nc1ncc(Cl)cc1Cl,64 to 65 °C
19,O=c1[nH]c2cc(Cl)c(Cl)cc2n1[C@@H]1C[C@H](CO)[C@@H](O)[C@H]1O,219 to 220 °C
20,CN(C)CCCOc1ccc(N(C(=O)c2ccc(F)cc2)c2ccccc2)cc1,82.5 to 83.5 °C
21,OCC1=CC=C(COc2cccc(O)c2)SS1,116 °C
22,O=c1c2c(CCc3ccncc3)n[nH]c2c2cccnc2n1-c1cccc([N+](=O)[O-])c1,161 to 165 °C
23,CCOC(=O)CCc1ccc2cc(O)ccc2n1,126 to 128 °C

# Continued, values first:
row,melting point,Compound
1,63 to 65 °C,COc1ccc(CCCCCCN)cc1
2,146 to 148 °C,CC(C)Oc1ccc(C(=O)N2CCNC2=Nc2c(Cl)cccc2Cl)cc1
3,64.5 to 68 °C,CCCCCCCCCCCCCCCCS(=O)(=O)OC1CN(C2CCC3(C)C(CCC4C3CCC3(C)C(C(C)CCCC(C)C)CCC43)C2)C1 (centres undefined)
4,131 to 132 °C,CC(=O)NC(C)CCC1CCN(c2nc3ccc(OCC4CC4)cc3o2)CC1 (centres undefined)
5,114 to 116 °C,CC(C)[C@@H]1C[C@@H]([C@H](CC2CCCCC2)NC(=O)OC(C)(C)C)OC1=O
6,88.9 to 90.3 °C,CCCn1c(=O)n2c(=O)n(COCc3ccccc3)nc2c2c1ncn2COCc1ccccc1
7,101 to 103 °C,COC(OC)C(C)n1nnc2ccc(OCc3ccccc3)cc21 (centres undefined)
8,80 to 81 °C,CCC(=O)Cc1cc(OC)ccc1NC(=O)OC(C)(C)C
9,66 °C,CC(C)N(CCOc1ccc(CC2SC(=O)NC2=O)cc1)c1nc2ccccc2o1 (centres undefined)
10,86 to 88 °C,COC(=O)CCc1c(Cc2ccccc2C(F)(F)F)sc2c1c(=O)n(C)c(=O)n2CC(C)C
11,65.4 °C,CC[C@H]1CC[C@H](CCc2ccc(-c3ccc(C#N)cc3)c(F)c2)CC1
12,104 to 106 °C,CCOC(=O)CCCCCOc1ccc(Nc2ccncc2)cc1
13,91 to 93 °C,CCOC(=O)C(C)c1ccc2c(c1)C(=O)c1ccccc1CS2 (centres undefined)
14,150 °C,CCOc1cc(CC)ccc1C1CCN(CCCCNC(=O)c2sc(-c3ccc(C(F)(F)F)cc3)nc2CO)CC1
15,110 to 111 °C,COc1cc(-c2nc(N)sc2CCC2CCCCC2)c(OC)cc1Cl
16,145 to 148 °C,CC(=O)OCC1OC(OC2C(COC(C)=O)OC(Sc3ccc(N)cc3)C(OC(C)=O)C2OC(C)=O)C(OC(C)=O)C(OC(C)=O)C1OC(C)=O (centres undefined)

# Reference: a melting point compilation (Tetko et al.; mined from patent text by program, amines drawn as free bases though some values may be those of a salt)
